Laboratory results: patent US11332438B2, “Creatine prodrugs, compositions and methods of use thereof” (Ultragenyx Pharmaceutical Inc., priority 2017, dated 2022)
“Also recorded” adds a separate entry of the source.

Columns and labels:
[1] = Plasma stability, mouse plasma; type: in vitro ADME; conditions: Table 2A, 37 °C, read-out: Plasma Stability Mouse t1/2
Summary of the method: (§1)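 Test article, 1 µM final (from 10% DMSO/water), incubated at 37 °C in plasma adjusted to pH 7.4 if needed; samples at 0, 2, 5, 15 and 30 min quenched with ice-cold 80% acetonitrile. Remaining compound by LC-MS/MS; half-life in minutes calculated.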

[2] = Chemical stability in phosphate buffered saline (PBS); type: physicochemical; conditions: Table 2A, 50 μM prodrug
Summary of the method: (§2)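 Incubations used 50 μM compound at 37 °C in phosphate buffered saline, fasted simulated intestinal fluid without pancreatin, or fasted simulated gastric fluid without pepsin.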

[3] = Plasma stability, human plasma; type: in vitro ADME; conditions: Table 2A, 37 °C, read-out: Plasma Stability Human t1/2
Summary of the method: as §1

[4] = Liver microsome stability, mouse; type: in vitro ADME; conditions: liver microsomes, pH 7.4, Table 2A, read-out: Microsome Stability Mouse t1/2
Summary of the method: (§3)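 Test compound incubated with mouse or human liver microsomes and NADPH in 0.1 M potassium phosphate, 1.0 mM EDTA, pH 7.4, with a 60-min no-NADPH control. Samples quenched with ACN containing internal standard at 0, 5, 10, 20, 30 and 60 min, then analysed by LC/MS.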

[5] = Chemical stability in simulated gastric fluid (SGF) without pepsin; type: physicochemical; conditions: Table 2A, 50 μM prodrug
Summary of the method: as §2

[6] = Liver microsome stability, human; type: in vitro ADME; conditions: liver microsomes, pH 7.4, Table 2A, read-out: Microsome Stability Human t1/2
Summary of the method: as §3

[7] = system: ARPE-19 cells; experiment: Creatine prodrug uptake and d3-creatine release in ARPE-19 cells (Table 4A); type: cell-based, human; conditions: 50 μM, 6 h, cytosol fraction, corrected for total protein
Experimental: At the end of the incubation, supernatant will be collected from each well to assess prodrug recovery. Cells are then washed 3× with PBS. Plates, prodrugs in supernatant, prodrugs in serum-free medium are stored at −80° C. until harvest (within 5 days). On the day of extraction, 130 uL of lysis buffer (10 mM Tris pH 7.4) with EDTA-free protease inhibitors is added to each well and cells are removed using a cell scraper. Lysates are further homogenized using a handheld pestle and then centrifuged at 16,000 g, […], for 10 minutes to collect cytosol fraction. Pellets will be stored at −80° C. until further analysis. A 4× volume of stop solution (80% ACN/20% water) will be added to the cytosol fraction, supernatant and medium. Samples will be centrifuged at 15,890 g (13,000 rpm) at 4° C. for 10 mins. Supernatant will be collected and stored at −80° C. within 5 days prior to LC-MS/MS analysis. Dosing solutions for each prodrug (10 μM) will be assayed to verify concentration. Cells alone with vehicle will serve as controls to assess background signal for LC-MS/MS. Two independent runs of experiment will be conducted.
Nine fatty acid amide creatine prodrugs were tested in human ARPE-19 cells to assess prodrug uptake and d3-Cr release inside the cells. 50 μM of prodrug was incubated in culture medium with the cells and the cells were harvested at 6 h. Quantitation of prodrugs, d3-Cr (d3-creatine) and d3-Cm (d3-creatinine) in the cytosol fraction was corrected for total protein concentration.

[8] = In vivo IV dosing in CrT KO mice: prodrug, d3-Cr and d3-Crn in brain (Table 5); conditions: for AUClast prodrug in the brain: BQL prodrug = 41.2 ng/mL
Experimental: A creatine prodrug is administered as an intravenous bolus injection to groups of three to six adult male CD1 mice at an appropriate creatine prodrug dose equivalent per kg body weight. Animals are conscious at the time of the experiment. Blood samples (0.3 mL) are obtained via a jugular vein cannula at intervals over 8 hours following IV dosing. Blood is processed into plasma, then the plasmais immediately frozen at −80° C. until analyzed by LC-MS/MS. Samples may also be taken form the CSF or other appropriate biological fluid. Brains were collected and flash frozen immediately in liquid nitrogen. Brains were homogenized in 100 mM KPI buffer with a cocktail of anti-proteases on the same day as the sample preparation required for LC-MS/MS analysis.
Several prodrugs with either free COOH group and ester linkage and macrocycles were selected for IV dosing in animal study to assess PK and d3-Cr release in brain in vivo. Prodrugs were IV dosed in CrT KO mice at 10, 15, or 25 mg/kg in animal studies. Mouse brain homogenates (MBH) were prepared from brains collected from mice after dosing. Levels of prodrug, d3-Cr and d3-Crn were quantified in brain and expressed in brain concentration (for macrocycle prodrugs) or AUC (for linear prodrugs) over time. Very few prodrugs were detected in MBH.

[9] = Prodrug cleavage in human brain homogenates (HBH): d3-Cr release and d3-Crn cyclization; type: in vitro ADME; conditions: for Prodrug Cleavage Human BH d3-Crn release / Prodrug Cleavage Human BH net d3-Cr release: 200 μM prodrug, 3 h, % of nominal input; for Prodrug Cleavage Human BH net d3-Cr release: negative control subtracted
Experimental: For assessment of the ability of prodrugs to release creatine, and to release creatine preferentially to unwanted cyclization to creatinine, d3-labeled (deuterium labeled methyl group) prodrugs are incubated with brain homogenates (e.g., mouse, human) specially prepared to preserve FAAH activity or with rFAAH for direct cleavage study. The use of d3-labelled prodrugs is essential in order to distinguish prodrug-derived creatine (d3-creatine) from high concentrations of endogenous (non-labeled) creatine. […] Prodrugs are tested at final concentrations of 20 μM and 200 μM. Approximately 3-4 mg of homogenate is used for each reaction. Co-factor (NADPH) is included at a final concentration of 1 mM. FAAH activity is confirmed by conversion of 7-amino-4-methyl Coumarin-Arachidonamide to 7-amino-4-methyl Coumarin by fluorescent assay. Negative controls include incubations without brain homogenate/rFAAH (but with NADPH) or 65° C. heat inactivated brain homogenate/rFAAH to assess non-enzymatic prodrug cleavage under the conditions of the assay and FAAH inhibitor […] at the concentration of 1 μM. Prodrug incubations are prepared by addition of 8 μL of prodrug stock solution (500 or 5000 μM in DMSO or DMSO/methanol) to assay buffered, followed by addition of brain homogenate/rFAAH. […] The samples are centrifuged at 15890×g for 10 minutes at 4° C., followed by transfer of the supernatants for storage at −20° C. pending LC-MS/MS analysis. Sample supernatants are analyzed by LC-MS/MS for determination of d3-prodrug, d3-creatine and d3-creatinine levels.
Deuterated creatine prodrugs were tested in 3 different in vitro assays to assess d3-creatine (d3-Cr) release and cyclization to form d3-creatinine (d3-Crn). These assays were 1) direct cleavage with recombinant human FAAH enzyme (rFAAH), 2) cleavage in mouse brain homogenates (MBH), and 3) human brain homogenates (HBH).
Creatine prodrug cleavage efficiency was determined by percentage of net d3-Cr release in μM (positive reaction subtracted from negative control of no brain homogenate/rFAAH or inactivated brain homogenate/rFAAH) over nominal input concentration of 200 μM prodrug at 3 h. Propensity for creatinine cyclization was determined by percentage of d3-Crn generated in μM in positive reaction over nominal input concentration of 200 μM prodrug at 3 h.

[10] = IV 10 mg/kg, CrT KO mouse brain
[11] = in vitro cleavage assays (Table 3A)

Row | SMILES | half-life [1] [h] | Chemical Stability PBS % T0 at 2 hours at 37 °C. [2] [%] | half-life [3] [h] | half-life at 10 μM [4] [h] | Chemical Stability SGF, no enzyme % T0 at 2 hours at 37 °C. [5] [%] | half-life at 10 μM [6] [h] | prodrug, Cellular Uptake [7] | AUClast prodrug in the brain [8, 10] | other results
1 | [2H]C([2H])([2H])N(CC(=O)[O-])C(=N)NC(=O)CCCCCCC/C=C\CCCCCCCC.[Na+] [Compound 1, Sodium N-(methyl-d3)-N—(N-oleoylcarbamimidoyl)glycinate] | > 3 | 76 | > 3 | 1.38 | 74 | 2.22 | 24.8 nmol/mg protien |  | 
2 | Cl.[2H]C([2H])([2H])N(CC(=O)OCCCCCCC)C(=N)NC(=O)CCCCCCCCCC [Compound 5, Heptyl N-(methyl-d3)-N—(N-undecanoylcarbamimidoyl)glycinate Hydrochloride] | < 0.0833 | 23 | 0.0833 | < 0.0833 | 73 | < 0.0833 | BQL | BQL | 
3 | [2H]C([2H])([2H])N(CC(=O)OC(C)C)C(=N)NC(=O)CCCCCCCCCCCC [Compound 10] |  |  |  |  |  |  |  | BQL | 
4 | Cl.[2H]C([2H])([2H])N(CC(=O)OC(C)C)C(=N)NC(=O)CCCCCCCCCC [Compound 12-HCl] |  | 99 |  |  | 117 |  |  |  | d3-Cr/d3-Crn release ratio in vivo (in words) ([8]; brain, CrT KO mice): favorable d3-Cr/d3-Crn ratio; Prodrug Cleavage Human BH d3-Crn release [9]: 265.7%; Prodrug Cleavage Human BH net d3-Cr release [9]: 2.9%; d3-Cr release in vitro (in words) [9, 11]: small amount of d3-Cr; d3-Crn (creatinine) cyclization in vitro (in words) [9, 11]: predominantly cyclized into creatinine; also recorded: predominantly creatinine cyclization
5 | [2H]C([2H])([2H])N(CC(=O)OC(C)C)C(=N)NC(=O)CCCCCCCCCC [Compound 12] |  |  |  |  |  |  |  | BQL | 
6 | [2H]C([2H])([2H])N(CC(=O)[O-])C(=N)NC(=O)CCCCCC.[Na+] [Compound 13] | > 3 | 97 | > 3 | 15.2 | 94 | 10.8 |  | BQL | crossing of BBB (in words) ([8]; CrT KO mice, IV dosing): did not seem to cross BBB; AUClast d3-Cr in the brain ([8]; IV 10 mg/kg, CrT KO mouse brain, BQL d3-Cr = 13.7 ng/mL): BQL; AUClast d3-Crn in the brain ([8]; IV 10 mg/kg, CrT KO mouse brain, BQL d3-Crn = 1.5 ng/mL): BQL
7 | [2H]C([2H])([2H])N(CC(=O)[O-])C(=N)NC(=O)c1cccnc1.[Na+] [Compound 20] | > 3 | 101 | > 3 | > 2.42 | 78 | > 2.42 | BQL |  | d3-Cr, Cellular Uptake [7]: BQL; d3-Crn, Cellular Uptake [7]: BQL
8 | [2H]C([2H])([2H])N(CC(=O)O)C(=N)NC(=O)CCCCCCCCCCC [Compound 30] | 2.7 | 145 | > 3 | > 2.42 | 62 | 1.57 | 29.2 nmol/mg protien |  | 
9 | Cl.[2H]C([2H])([2H])N(CC(=O)OCC(C)(C)C)C(=N)NC(=O)CCCCCCCCCC [Compound 39] |  | 62 |  |  | 103 |  |  |  | Prodrug Cleavage Human BH d3-Crn release [9]: 166.5%; Prodrug Cleavage Human BH net d3-Cr release [9]: 6.4%
